{"source": "patent EP1656941A1", "about": "“Compositions for the treatment of diabetic nephropathy” (Clinigene International Private Limited, priority 2004, dated 2006)", "key": {"[1]": {"test_system": "patients with type 1 diabetes mellitus and diabetic nephropathy", "settings": "Lewis et. al. 1993; cited from earlier work"}, "[2]": {"test_system": "patients with diabetic nephropathy", "experiment": "Estimated GFR by the Cockcroft - Gault formula; open-labeled, randomized three-arm study", "assay_type": "in vivo, human", "procedure": "A secondary end-point for this study was the GFR value obtained for each patient. This Secondary Endpoint included Estimated GFR, which was calculated using the following formulae: […]\nMeasurement of GFR Once all data was collected, Glomerular Filtration Rate GFR) was determined by the Cockcroft - Gault formula.\nEstimated GFR(inml/min) = ([140−age(in years)∗weight(in Kg))/(Serum Creatinie level(inμmol/L)) [formula]\nEstimated GFR(inml/min) = (1.23∗[140−age(in years)∗weight(in Kg))/(Serum Creatinie level(inμmol/L)) [formula]\n(§1) Evaluation of the effects of MMF or ACE inhibitors alone or in combination on the status of proteinuria in patients with diabetic nephropathy was an open-labeled, randomized study. This study consisted of three arms as shown below. • 1. treatment with MMF alone • 2. treatment with combination of MMF and lisinopril • 3. treatment with lisinopril alone In addition, there were three phases of the study as shown below.\n(§2) Phase 2: Treatment Phase (6 months): Every patient who qualified the screening phase was assigned one of the treatment arms. During this phase, patients were monitored closely and efficacy and safety parameters are assessed every month.\n• 1. MMF: The dose of MMF given during the study was 500 mg per oral twice a day throughout the study. • 2. Lisinopril: The starting dose of lisinopril given in the study was 5 mg per oral twice a day. In case of hypertensive patients, the dose could be titrated upwards based on investigator's discretion, which in turn was based on the patient's \"safety end point\". • 3. MMF + Lisinopril: In the patients who received both the drugs, the dose of MMF was 500 mg per oral twice a day and lisinopril was 5 mg per oral twice a day. In the case of hypertensive patients, the dose of lisinopril could be titrated upwards based on investigator's discretion, which in turn was based on the patient's \"safety end point\"."}, "[3]": {"test_system": "patients with diabetic nephropathy", "experiment": "24-hour urine protein (proteinuria), Pyrogallol Red / SDS reagent method; open-labeled, randomized three-arm study", "assay_type": "in vivo, human", "parameters": "24h Urine protein (Mean) / Difference 24h Urine protein: unit not given here", "source_text": "The study of the effect of MMF and lisinopril for the treatment of diabetic nephropathy was designed in the following manner.\nIn this study, a total of 30 patients were planned of which 18 were randomized and subjected to enter into one of the studies in which the patient groups each received MMF alone, lisinopril alone, or a combination of both MMF and lisinopril.\nThe primary end-point for this study was the proteinuria value obtained from the patients via 24-hour urine protein which was measured using the Calorimetric method Pyrogallol Red / SDS liquid stable single reagent.\nThe inclusion of a patient is based on the following criteria. Type 1 and type 2 diabetic patients; male and postmenopausal (Natural & surgical) female diabetic patients; age 18-65 years; micral test positive (albumin excretion rate 20-200 µgm/min); patient must be able to swallow the oral medications to be used in the study; patient must sign an informed consent prior to the study.\nThe exclusion of a subject from the study is based on the following criteria: Premenopausal female patients of any age; clinical evidence of SLE; uncontrolled diabetes (Fasting Blood Glucose≥ 160 mg/dl or HbA1c ≥ 7.5%); uncontrolled hypertension (Systolic blood pressure ≥ 160 mm Hg and/or diastolic blood pressure ≥ 100 mm Hg); impaired renal function with serum creatinine ≥ 1.4 mg/dl; well-documented history of Henoch-Schonlein Purpura (with an exception to previous nonspecific abdominal pain or rash ― which is not an exclusion criteria); clinical evidence of cirrhosis or chronic active liver disease; abnormal laboratory values at the time of study entry; absolute neutrophil count (ANC) < […], or hematocrit (HCT) < 28%; AER > 200 µgm/min; BUN ≥ 25 mg/dl; known contraindication or allergy to the administration of MMF or lisinopril; history of significant gastrointestinal disorder, e.g. severe chronic diarrhea or active peptic ulcer disease; active systemic infection or history of serious infection within one month of entry; known infection with HIV, hepatitis B or hepatitis C; other major organ system disease or malignancy other than skin cancer fully excised more than 5 years prior to entry; current or prior treatment with MMF or azathioprine; current or recent (within 30 days) exposure to any investigational drug.\nas §1\nPhase 1: Screening Phase (Duration 1 to 4 weeks): 303 patients were screened on their first visit (V1), based on the given inclusion and exclusion criteria to determine if they were eligible for the study and to assess likelihood of compliance with study protocol. Micral test for every patient was done to determine the eligibility.\nas §2\n• 1. MMF: The dose of MMF given during the study was 500 mg per oral twice a day throughout the study. • 2. Lisinopril: The starting dose of lisinopril given in the study was 5 mg per oral twice a day. In case of hypertensive patients, the dose could be titrated upwards based on investigator's discretion, which in turn was based on the patient's \"safety end point\". • 3. MMF + Lisinopril: In the patients who received both the drugs, the dose of MMF was 500 mg per oral twice a day and lisinopril was 5 mg per oral twice a day. […]"}, "Diabetic rats": {"test_system": "Diabetic rats", "settings": "Utimura et. al. 2003, cited from earlier work"}, "[4]": {"test_system": "patients with IgA nephropathy", "settings": "MMF 1-1.5g per day vs 30-40 mg of Prednisone per day; followed for seventy two weeks; preliminary report; cited from earlier work"}, "[5]": {"settings": "Benefited patients, 1 month after treatment at V3, lisinopril 5mg twice daily"}, "[6]": {"settings": "Benefited patients, 3 month after treatment at V4, lisinopril 5mg twice daily"}, "[7]": {"settings": "Benefited patients, 6 month after treatment at V5, lisinopril 5mg twice daily"}, "[8]": {"settings": "Benefited patients, V3 (1 month) versus baseline V2, lisinopril 5mg twice daily"}, "[9]": {"settings": "Benefited patients, V4 (3 month) versus baseline V2, lisinopril 5mg twice daily"}, "[10]": {"settings": "Benefited patients, V5 (6 month) versus baseline V2, lisinopril 5mg twice daily"}, "[11]": {"settings": "Not benefited patients, 1 month after treatment at V3, lisinopril 5mg twice daily"}, "[12]": {"settings": "Not benefited patients, 3 month after treatment at V4, lisinopril 5mg twice daily"}, "[13]": {"settings": "Not benefited patients, 6 month after treatment at V5, lisinopril 5mg twice daily"}, "[14]": {"settings": "Not benefited patients, V3 (1 month) versus baseline V2, lisinopril 5mg twice daily"}, "[15]": {"settings": "Not benefited patients, V4 (3 month) versus baseline V2, lisinopril 5mg twice daily"}, "[16]": {"settings": "Not benefited patients, V5 (6 month) versus baseline V2, lisinopril 5mg twice daily"}, "[17]": {"settings": "Benefited patients, 1 month after treatment at V3, MMF 500 mg per oral twice a day"}, "[18]": {"settings": "Benefited patients, 3 month after treatment at V4, MMF 500 mg twice daily"}, "[19]": {"settings": "Benefited patients, V3 (1 month) versus baseline V2, MMF 500 mg per oral twice a day"}, "[20]": {"settings": "Benefited patients, V4 (3 month) versus baseline V2, MMF 500 mg twice daily"}, "[21]": {"settings": "Not benefited patients, 1 month after treatment at V3, MMF 500 mg per oral twice a day"}, "[22]": {"settings": "Not benefited patients, 3 month after treatment at V4, MMF 500 mg twice daily"}, "[23]": {"settings": "Not benefited patients, V3 (1 month) versus baseline V2, MMF 500 mg per oral twice a day"}}}
{"smiles": "C[C@H](CS)C(=O)N1CCC[C@H]1C(=O)O", "note": "[Captopril]", "values": [{"measurement": "progression of renal disease", "setting": "[1]", "value": "prevents or delays"}]}
{"smiles": "NCCCC[C@H](N[C@@H](CCc1ccccc1)C(=O)O)C(=O)N1CCC[C@H]1C(=O)O", "note": "[lisinopril]", "values": [{"measurement": "GFR (Mean)", "setting": "[2]; [5]", "value": 79.16, "unit": "mL/min"}, {"measurement": "GFR (Mean)", "setting": "[2]; [6]", "value": 89.55, "unit": "mL/min"}, {"measurement": "GFR (Mean)", "setting": "[2]; [7]", "value": 105.9, "unit": "mL/min"}, {"measurement": "Difference GFR", "setting": "[2]; [8]", "value": -0.09, "unit": "mL/min"}, {"measurement": "Difference GFR", "setting": "[2]; [9]", "value": 7.95, "unit": "mL/min"}, {"measurement": "Difference GFR", "setting": "[2]; [10]", "value": 28.5, "unit": "mL/min"}, {"measurement": "GFR (Mean)", "setting": "[2]; [11]", "value": 63.97, "unit": "mL/min"}, {"measurement": "GFR (Mean)", "setting": "[2]; [12]", "value": 68.76, "unit": "mL/min"}, {"measurement": "GFR (Mean)", "setting": "[2]; [13]", "value": 76.4, "unit": "mL/min"}, {"measurement": "Difference GFR", "setting": "[2]; [14]", "value": 1.91, "unit": "mL/min"}, {"measurement": "Difference GFR", "setting": "[2]; [15]", "value": 0.13, "unit": "mL/min"}, {"measurement": "Difference GFR", "setting": "[2]; [16]", "value": -9.4, "unit": "mL/min"}, {"measurement": "24h Urine protein (Mean)", "setting": "[3]; [5]", "value": 236.66}, {"measurement": "24h Urine protein (Mean)", "setting": "[3]; [6]", "value": 161.15}, {"measurement": "24h Urine protein (Mean)", "setting": "[3]; [7]", "value": 248.4}, {"measurement": "Difference 24h Urine protein", "setting": "[3]; [8]", "value": -133.6}, {"measurement": "Difference 24h Urine protein", "setting": "[3]; [9]", "value": -268.75}, {"measurement": "Difference 24h Urine protein", "setting": "[3]; [10]", "value": -239.6}, {"measurement": "24h Urine protein (Mean)", "setting": "[3]; [11]", "value": 211.25}, {"measurement": "24h Urine protein (Mean)", "setting": "[3]; [12]", "value": 289.2}, {"measurement": "24h Urine protein (Mean)", "setting": "[3]; [13]", "value": 626}, {"measurement": "Difference 24h Urine protein", "setting": "[3]; [14]", "value": 53.73}, {"measurement": "Difference 24h Urine protein", "setting": "[3]; [15]", "value": 101.47}, {"measurement": "Difference 24h Urine protein", "setting": "[3]; [16]", "value": 254.2}, {"measurement": "reduced proteinuria in % of the patients", "setting": "[3]; at the end of 1 month (V3 vs V2), 5mg of lisinopril twice daily", "value": 42, "unit": "%"}, {"measurement": "reduced proteinuria in % of the patients", "setting": "[3]; at the end of 3 month (V4 vs V2), 5mg of lisinopril twice daily", "value": 40, "unit": "%"}, {"measurement": "reduced proteinuria in % of the patients", "setting": "[3]; at the end of 6 month (V5 vs V2), 5mg of lisinopril twice daily", "value": 50, "unit": "%"}]}
{"smiles": "COc1c(C)c2c(c(O)c1C/C=C(\\C)CCC(=O)OCCN1CCOCC1)C(=O)OC2", "note": "[MMF, mycophenolate mofetil]", "values": [{"measurement": "albuminuria, glomerular macrophage infiltration and glomerulosclerosis", "setting": "Diabetic rats; 8 months", "value": "prevent"}, {"measurement": "effect on blood pressure, glomerular dynamics or blood glucose levels", "setting": "Diabetic rats", "value": "no effect"}, {"measurement": "GFR (Mean)", "setting": "[2]; [17]", "value": 89.3, "unit": "mL/min"}, {"measurement": "GFR (Mean)", "setting": "[2]; [18]", "value": 81.85, "unit": "mL/min"}, {"measurement": "Difference GFR", "setting": "[2]; [19]", "value": 0.27, "unit": "mL/min"}, {"measurement": "Difference GFR", "setting": "[2]; [20]", "value": -1.35, "unit": "mL/min"}, {"measurement": "GFR (Mean)", "setting": "[2]; [21]", "value": 75.26, "unit": "mL/min"}, {"measurement": "GFR (Mean)", "setting": "[2]; [22]", "value": 49.9, "unit": "mL/min"}, {"measurement": "Difference GFR", "setting": "[2]; [23]", "value": 4.40, "unit": "mL/min"}, {"measurement": "Difference GFR", "setting": "[2]; Not benefited patients, V4 (3 month) versus baseline V2, MMF 500 mg twice daily", "value": 49.9, "unit": "mL/min"}, {"measurement": "24h Urine protein (Mean)", "setting": "[3]; [17]", "value": 112.73}, {"measurement": "24h Urine protein (Mean)", "setting": "[3]; [18]", "value": 260.8}, {"measurement": "Difference 24h Urine protein", "setting": "[3]; [19]", "value": -203.93}, {"measurement": "Difference 24h Urine protein", "setting": "[3]; [20]", "value": -136.6}, {"measurement": "24h Urine protein (Mean)", "setting": "[3]; [21]", "value": 696.3}, {"measurement": "24h Urine protein (Mean)", "setting": "[3]; [22]", "value": 305.5}, {"measurement": "Difference 24h Urine protein", "setting": "[3]; [23]", "value": 361.7}, {"measurement": "reduced proteinuria in % of the patients", "setting": "[3]; after 1 month of treatment (V3 vs V2), MMF 500 mg per oral twice a day", "value": 67, "unit": "%"}, {"measurement": "reduced proteinuria in % of the patients", "setting": "[3]; at V4 at the end of 3 months, 500 mg of MMF twice daily", "value": 67, "unit": "%"}, {"measurement": "decreasing proteinuria, protecting renal function and also decreasing blood lipid levels", "setting": "[4]", "value": "superior to Prednisone"}]}
